Experimental data from US9879036B2, “Mitochondrial aldehyde dehydrogenase-2 binding compounds and methods of use thereof” (Aviv Therapeutics, Inc., priority 2014, dated 2018).

molecular target: T1, ALDH2 (Homo sapiens, UniProt P05091); test: ALDH2 activity with 20 μM of the compound (Table 3); assay type: biochemical; conditions: 20 μM compound
T1 construct: His-tag (N); made in house; host or cells: E. coli BL21
T1 sequence (P05091 18-517): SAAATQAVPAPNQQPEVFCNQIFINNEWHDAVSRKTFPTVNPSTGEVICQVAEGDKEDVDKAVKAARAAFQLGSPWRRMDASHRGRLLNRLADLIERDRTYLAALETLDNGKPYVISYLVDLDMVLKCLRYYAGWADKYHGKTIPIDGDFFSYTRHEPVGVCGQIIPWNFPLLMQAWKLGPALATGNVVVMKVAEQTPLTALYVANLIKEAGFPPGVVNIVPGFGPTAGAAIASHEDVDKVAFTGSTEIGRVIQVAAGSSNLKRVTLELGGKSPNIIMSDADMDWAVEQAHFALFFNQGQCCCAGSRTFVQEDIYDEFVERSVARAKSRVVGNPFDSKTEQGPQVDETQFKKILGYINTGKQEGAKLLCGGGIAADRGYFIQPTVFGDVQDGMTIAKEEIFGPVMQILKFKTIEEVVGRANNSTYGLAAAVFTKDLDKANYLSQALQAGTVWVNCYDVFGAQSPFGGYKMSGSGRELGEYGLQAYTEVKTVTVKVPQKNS
Experimental: (§1) ALDH2 catalyzes the oxidative reaction of substrate acetaldehyde to acetic acid using NAD^+ as a cofactor. Enzymatic activity, or catalytic rate, of aldehyde dehydrogenase (ALDH2) are measured spectrophotometrically at UV wavelength λ340 nm by the accumulation of reduced product NADH derived from NAD^+. Absorbance at λ340 nm is quantitatively proportional to the amount of NADH being produced over time (6.22 O.D. unit=1 mmol of NADH, measured in a 1-cm width standard cuvette). This method is well-established in the literature [e.g. Rex et al., Alcohol Clin. Exp. Res. 9, 147 (1985)].
as §1, with “can be” for “are”
ALDH2 catalyzes the oxidative reaction of substrate acetaldehyde to acetic acid using NAD^+ as a cofactor. Enzymatic activity, or catalytic rate, of aldehyde dehydrogenase (ALDH2) can be measured spectrophotometrically at UV wavelength λ340 nm by the accumulation of reduced product NADH derived from NAD^+. Because compounds of formula (I) are considered to be agonists or “activators” of ALDH2 the enzymatic activity measured will exceed 100% of the baseline enzymatic activity of the enzyme in its normal activation state. As the concentration of the compounds of formula (I) decreases from 20 micromolar to 0.16 micromolar in the presence of ALDH, a decrease in the activation of enzymatic activity is observed for the wild-type ALDH2*1/*1 and the heterozygous form ALDH2*1/*2.

| Structure (SMILES) | activity at 20 µM [%] |
| --- | --- |
| COc1ccc(CNC(=O)c2cc(-c3ccccc3C(=O)O)cnc2OCC2CC2)cc1F [AC75] | 100 to 150 |
| COc1ccc(CNC(=O)c2cc(-c3nocc3CO)cnc2OCC2CC2)cc1F [AC41] | 100 to 150 |
| COc1ccc(CNC(=O)c2cc(-c3ncccc3CO)ccc2OC2CCCCCCC2)cc1F [AC165] | 150 to 250 |
| COc1ccc(CNC(=O)c2cc(-c3cn(C)nc3CO)ccc2OCC2CC2)cc1F [AC39] | 150 to 250 |
| COc1ccc(CNC(=O)c2cc(-c3ccccc3CN(C)C)cnc2OCC2CC2)cc1F [AC76] | 100 to 150 |
| COc1ccc(CNC(=O)c2cc(-c3ncccc3CO)ccc2OCC2CC2)c(C)c1F [AC150] | 150 to 250 |
| CCNC(=O)c1ccccc1-c1cnc(OCC2CC2)c(C(=O)NCc2ccc(OC)c(F)c2)c1 [AC80] | 100 to 150 |
| COc1ccc(CNC(=O)c2cc(-c3cnn(C)c3CO)ccc2OCC2CC2)cc1F [AC33] | > 250 |
| O=C(NCc1ccc2c(c1)OCO2)c1cc(-c2ncccc2CO)ccc1OCC1CC1 [AC43] | 150 to 250 |
| COc1ccc(CNC(=O)c2cc(-c3n[nH]cc3CO)cnc2OCC2CC2)cc1F [AC40] | 100 to 150 |
| COc1ccc(CNC(=O)c2cc(-c3ccccc3CCC(C)=O)cnc2OCC2CC2)cc1F [AC81] | 100 to 150 |
| CCCOc1ccc(-c2ncccc2CO)cc1C(=O)NCc1ccc(OC)c(F)c1 [AC100] | 150 to 250 |
| COc1ccc(CNC(=O)c2cc(-c3ncccc3CO)ccc2OC2CCCCCC2)cc1F [AC164] | > 250 |
| COc1ccc(CNC(=O)c2cc(-c3ccccc3C(=O)N(C)C)cnc2OCC2CC2)cc1F [AC79] | 100 to 150 |
| COc1ccc(CNC(=O)c2cc(-c3ncccc3CO)ccc2OC2CCCCC2)cc1F [AC110] | > 250 |
| COc1ccc(CNC(=O)c2cc(-c3ccccc3CCO)cnc2OCC2CC2)cc1F [AC92] | 100 to 150 |
| CC(C)(C)c1ccc(CNC(=O)c2cc(-c3ccccc3CO)cnc2OCC2CC2)cc1 [AC50] | 100 to 150 |
| COc1ccc(CNC(=O)c2cc(-c3ncccc3CO)ccc2OC2CCC2)cc1F [AC106] | 150 to 250 |
| COc1ccc(CNC(=O)c2cc(-c3ccccc3/C=C/C(C)=O)cnc2OCC2CC2)cc1F [AC77] | 100 to 150 |
| COc1ccc(CNC(=O)c2cc(-c3ncccc3CO)ccc2NCC2CC2)cc1F [AC42] | 150 to 250 |
| CCCOc1ccc(-c2cnccc2CO)cc1C(=O)NCc1ccc(OC)c(F)c1 [AC99] | 150 to 250 |

| Structure (SMILES) | activity at 20 µM [%] |
| --- | --- |
| COc1cc(OC)c(CNC(=O)c2cc(-c3ncccc3CO)ccc2OCC2CC2)cc1F [AC148] | 150 to 250 |
| COc1ccc(CNC(=O)c2cc(-c3ncccc3CO)ccc2OC2CCCC2)cc1F [AC108] | > 250 |
| COc1ccc(CNC(=O)c2cc(-c3ccccc3C(N)=O)cnc2OCC2CC2)cc1F [AC91] | 100 to 150 |
| COc1ccc(CNC(=O)c2cc(-c3ccccc3O)ccc2OCC2CC2)cc1F [AC82] | 100 to 150 |
| CCOc1ccc(-c2cnccc2CO)cc1C(=O)NCc1ccc(OC)c(F)c1 [AC97] | 150 to 250 |
| COc1ccc(CNC(=O)c2cc(-c3cnccc3CO)ccc2O)cc1F [AC93] | 100 to 150 |
| COc1ccc(CNC(=O)c2cc(-c3cnccc3CO)ccc2OC2CCCCC2)cc1F [AC109] | > 250 |
| O=C(NCc1ccccc1)c1cc(-c2ccccc2CO)cnc1OCC1CC1 [AC55] | 100 to 150 |
| COc1ccc(CNC(=O)c2cc(-c3nc[nH]c3CO)ccc2OCC2CC2)cc1F [AC38] | 150 to 250 |
| CNCc1ccccc1-c1ccc(OCC2CC2)c(C(=O)NCc2ccc(OC)c(F)c2)c1 [AC83] | 150 to 250 |
| COc1ccc(CNC(=O)c2cc(-c3ccccc3OC)ccc2OCC2CC2)cc1F [AC78] | 100 to 150 |
| [2H]C(O)c1cccnc1-c1ccc(OCC2CC2)c(C(=O)NCc2ccc(OC)c(F)c2)c1 (stereo not drawn) [AC152] | > 250 |
| COc1c(F)cc(CNC(=O)c2cc(-c3ncccc3CO)ccc2OCC2CC2)cc1Cl [AC147] | 150 to 250 |
| CCOc1ccc(-c2ncccc2CO)cc1C(=O)NCc1ccc(OC)c(F)c1 [AC98] | 150 to 250 |
| COc1ccc(CNC(=O)c2cc(-c3ncccc3CO)ccc2OC)cc1F [AC96] | 150 to 250 |
| COc1ccc(CNC(=O)c2cc(-c3cnccc3CO)ccc2OC(C)C)cc1F [AC101] | > 250 |
| COc1ccc(CNC(=O)c2cc(-c3ccccc3OC)cnc2OCC2CC2)cc1F [AC74] | 100 to 150 |
| COc1cc(F)c(CNC(=O)c2cc(-c3ncccc3CO)ccc2OCC2CC2)cc1F [AC146] | > 250 |
| O=C(NCc1cc(Cl)c2c(c1)OCO2)c1cc(-c2ncccc2CO)ccc1OCC1CC1 [AC45] | 100 to 150 |
| COc1ccc(CNC(=O)c2cc(-c3ncccc3CO)ccc2OCC2CCCC2)cc1F [AC166] | > 250 |
| O=C(NCc1ccc(C(F)(F)F)cc1)c1cc(-c2ccccc2CO)cnc1OCC1CC1 [AC49] | 100 to 150 |

| Structure (SMILES) | activity at 20 µM [%] |
| --- | --- |
| COc1ccc(CNC(=O)c2cc(-c3cnccc3CO)ccc2OCC(C)C)cc1F [AC111] | > 250 |
| [2H]C([2H])([2H])Oc1ccc(CNC(=O)c2cc(-c3ncccc3CO)ccc2OCC2CC2)cc1F [AC153] | > 250 |
| O=C(NCc1ccc(C(F)(F)F)cc1F)c1cc(-c2ccccc2CO)cnc1OCC1CC1 [AC51] | 100 to 150 |
| COc1ccc(CNC(=O)c2cc(-c3ncccc3CO)ccc2O)cc1F [AC94] | 100 to 150 |
| COc1ccc(CNC(=O)c2cc(-c3ncccc3CO)ccc2OCC2CC2)cc1OC [AC44] | 150 to 250 |
| O=C(NCc1ccc(Cl)cc1)c1cc(-c2ccccc2CO)cnc1OCC1CC1 [AC52] | 100 to 150 |
| O=C(NCc1ccc(Cl)c(Cl)c1)c1cc(-c2ccccc2CO)cnc1OCC1CC1 [AC54] | 150 to 250 |
| O=C(NCc1ccc(F)cc1)c1cc(-c2ccccc2CO)cnc1OCC1CC1 [AC53] | 100 to 150 |
| COc1ccc(CNC(=O)c2cc(-c3cnccc3CO)ccc2OC2CCC2)cc1F [AC105] | 150 to 250 |
| Cc1ccc(CNC(=O)c2cc(-c3ccccc3CO)cnc2OCC2CC2)cc1 [AC48] | 100 to 150 |
| CCNCc1ccccc1-c1ccc(OCC2CC2)c(C(=O)NCc2ccc(OC)c(F)c2)c1 [AC84] | 150 to 250 |
| COc1ccc(CNC(=O)c2cc(-c3ccccc3/C=N/O)cnc2OCC2CC2)cc1F [AC90] | 100 to 150 |
| COc1ccc(CNC(=O)c2cc(-c3c[nH]nc3CO)ccc2OCC2CC2)cc1F [AC30] | > 250 |
| COc1ccc(CNC(=O)c2cc(-c3cnccc3CO)ccc2OC2CC2)cc1F [AC103] | 150 to 250 |
| COc1ccc(CNC(=O)c2cc(-c3ncccc3CO)ccc2OC2CC2)cc1F [AC104] | 150 to 250 |
| COc1ccc(CNC(=O)c2cc(-c3ccccc3C(=O)O)ccc2OCC2CC2)cc1F [AC85] | 100 to 150 |
| COc1c(F)cc(CNC(=O)c2cc(-c3ncccc3CO)ccc2OCC2CC2)cc1F [AC145] | 150 to 250 |
| COc1ccc(CNC(=O)c2cc(-c3cnccc3CO)ccc2OC)cc1F [AC95] | 150 to 250 |
| [2H]C([2H])([2H])Oc1ccc(CNC(=O)c2cc(-c3ncccc3CO)ccc2OC([2H])([2H])C2CC2)cc1F [AC159] | > 250 |
| COc1ccc(CNC(=O)c2cc(-c3ncccc3CO)ccc2OCC2CCCCC2)cc1F [AC163] | 150 to 250 |
| [2H]C(O)c1cccnc1-c1ccc(OCC2CC2)c(C(=O)NCc2ccc(OC([2H])([2H])[2H])c(F)c2)c1 (stereo not drawn) [AC157] | > 250 |
